Data taken from patent US20180140578A1, “METHODS AND COMPOSITIONS FOR THE DIAGNOSIS AND SELECTIVE TREATMENT OF CANCER” (Board of Regents of the University of Texas System, priority 2016, published 2018).

Key:
RBM39-3xFLAG complex = target: T1, RBM39-3xFLAG complex (Homo sapiens, UniProt Q14498+Q66K64); test: Immunoprecipitation of RBM39 complex +/− indisulam, LC-MS/MS (Table 1); details: H1155 RBM39-3xFLAG cells; 10 μM indisulam 2 hours
T1 construct: endogenous in cells; host or cells: H1155 RBM39-3xFLAG knock-in cells
Experimental: (§1) Anti-Flag M2 antibody (Sigma-Aldrich) was coupled to Dynabeads M-270 epoxy beads (Life Technologies) at the ratio of 10 μg of antibody/mg beads. […] Frozen cells were then pulverized in the a cryomill (Retsch) with one 25 mm steel ball and five cycles of three min at 25 Hz with intermittent cooling in liquid nitrogen. […] The lysates were centrifuged at 8000 g for 5 min at 4° C. 12 mg of conjugated Anti-Flag magnetic beads were mixed with clarified lysates for 5 min at 4° C. on a rotating platform, followed by three washes with IP buffer. Bound proteins were eluted with 1 mg/ml 3xFLAG peptide, followed by SDS-PAGE on a 10% Bis Tris gel. After brief electrophoresis, bands containing all the proteins were cut with clean blades. For western blotting of co-immunoprecipitated proteins, anti-DDA1 (ProteinTech, 14995-1-AP, 1:1000), anti-DDB1 (Abcam, ab109027, 1;10000), anti-CUL4A (Cell Signaling, 2699, 1:1000), anti-CUL4B (ProteinTech, 12916-1-AP, 1:1000) were used.
Excised gel bands were cut into approximately 1 mm^3 pieces. Gel pieces were then subjected to a modified in-gel trypsin digestion procedure (46). Gel pieces were washed and dehydrated with acetonitrile for 10 min. followed by removal of acetonitrile. Pieces were then completely dried in a speed-vac. […] Peptides were detected, isolated, and fragmented to produce a tandem mass spectrum of specific fragment ions for each peptide. […]

[1] = target: T2, RBM39-3xFLAG with DDA1, DDB1, CUL4A, CUL4B (Homo sapiens, UniProt Q14498+Q66K64); test: Co-immunoprecipitation of RBM39-3xFLAG from treated cells; type: cell-based; details: cells treated with indisulam but not DMSO
T2 construct: endogenous in cells; host or cells: HCT-116 RBM39-3xFLAG knock-in cells (treated cells in A90)
Experimental: as §1

RBM39 G268V-3xFLAG = target: T3, RBM39 G268V-3xFLAG (Homo sapiens, UniProt Q66K64); test: In vivo polyubiquitination of RBM39 G268V; type: cell-based; details: following indisulam treatment
T3 construct: expressed in transfected cells; host or cells: 293T
Experimental: cDNAs encoding RBM39-3xFLAG, RBM39 G268V-3xFLAG, and DCAF15-V5 were cloned into the pCDNA3.1+vector. pCMV 8XHis Ub was a gift from William Kaelin (Dana Farber Cancer Institute). 0.4 million 293T cells were seeded per well on 6-well plates and allowed to attach overnight. 250 ng of pCMV 8XHis Ub, 500 ng of pCDNA3-DCAF15-V5, 10 ng of either pCDNA3-RBM39-3xFLAG or pCDNA3-RBM39 G268V-3xFLAG were transfected. […] Cells were lifted from the plates by pipetting, pelleted by centrifugation, and washed once with PBS. Purification of His-Ub tagged proteins was performed as described (5).

RBM39-Nluc = target: T4, RBM39-Nluc (Homo sapiens, UniProt Q14498+Q66K64); test: RBM39-Nluc degradation by Nano-Glo luciferase assay; type: cell-based; details: H1155 RBM39-Nluc cells; read-out: decrease in RBM39-Nluc activity (IC50)
T4 construct: Homology directed repair facilitates tagging of endogenous RBM39 by AID, 3xFLAG, AcGFP, or Nanoluciferase; endogenous in cells; host or cells: H1155 RBM39-Nluc knock-in cells
Experimental: NanoLuc was knocked-in to the 3-prime end of the RBM39 gene using the procedure described above yielding H1155 RBM39-Nluc cells. […] Luminescence was recorded by EnVision multimode plate reader (Perkin Elmer). IC50 was determined with GraphPad Prism using baseline correction (by normalizing to DMSO control), the asymmetric (five parameter) equation and least squares fit.

[2] = tested on: TRIM27 mRNA and RBM3 mRNA; test: PCR validation of splicing changes; type: cell-based, human
Experimental: RNAs isolated from indisulam or siRNA treated cells were first treated with Turbo DNase (Life Technologies) to remove contaminating genomic DNA. After RNA cleanup with Quick-RNA MiniPrep kit (Zymo Research), 500 ng of total RNAs was converted into cDNAs with Multiscribe reverse transcriptase (Life Technologies). Exon skipping in TRIM27 was visualized by PCR amplification with 5′-[…]-3′ (SEQ ID NO: 3) and 5′-[…]-3′ (SEQ ID NO: 4) from cDNAs. […] Relative RNA levels were calculated based on 2^−ct method using Cyclophilin mRNA for normalization. The following primers were used for quantification of mRNA levels: […]

[3] = tested on: non-small cell lung cancer cell lines; test: IC50 assay, U2AF1 S34F vs wild type NSCLC cell lines; type: cell-based, human; details: four S34F vs sixty-six wild type lines; p=0.01
Experimental: Cells were plated at ˜15% confluence in a media comprising 5% concentration of fetal bovine serum supplemented with RPMI, which included 2 mM L-Glutamine in a 96 well dish. […] Following three days of incubation in a 5% CO2 incubator, the total ATP in each well was quantified using Cell Titer Glo (Promega). […] The solid lines represent the medians.

[4] = tested on: tumors derived from parental HCT-116 cells; details: IV 25 mg/kg for 8 days; immune deficient mice; cited from earlier work
[5] = advanced stage patients with solid tumors; monotherapy; cited from earlier work

Compound: NS(=O)(=O)c1ccc(S(=O)(=O)Nc2cccc3c(Cl)c[nH]c23)cc1 [Indisulam, indisulam]
- recruitment of RBM39 to CUL4, DDB1, DDA1, DCAF15 CRL complex (shotgun mass spectrometry) (RBM39-3xFLAG complex): induces recruitment of RBM39
- co-purification of RBM39-3xFLAG with DDA1, DDB1, CUL4A, CUL4B [1]: co-purified
- RBM39 G268V ubiquitination (RBM39 G268V-3xFLAG): not ubiquitinated
- DC50 (RBM39-Nluc): 360 nM
- splicing of TRIM27 mRNA (RT-PCR) [2]: dose-dependent exon skipping
- splicing of RBM3 mRNA (RT-PCR) ([2]; indisulam dose-dependent): intron retention
- sensitivity of U2AF1 S34F vs U2AF1 wild type NSCLC cell lines [3]: more sensitive
- tumor response (previously shown) [4]: regression
- stable disease [5]: 17-36 % of patients
